Where “and” joins values, the source holds several entries; their conditions need not be identical. Equal entries are not always repeated. Inconclusive results and toxic doses are left out.
Tested on: B6C3F1 mice, B16 melanoma ip, median survival T/C
Assay: NCI In Vivo Anticancer Drug Screen. Data for tumor model B16 Melanoma (intraperitoneal) in B6C3F1 mice
Conditions: endpoint: median survival time, higher = longer survival
Method in brief: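 Antitumor effect was judged in mice with transplanted tumors by dividing the treated group's survival measure by that of vehicle controls.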

[1] = dose: 12.5 mg/kg/injection, schedule: Q01DX009 (ip), vehicle: saline with Tween-80
[2] = dose: 25.0 mg/kg/injection, schedule: Q01DX009 (ip), vehicle: saline with Tween-80
[3] = dose: 50.0 mg/kg/injection, schedule: Q01DX009 (ip), vehicle: saline with Tween-80
[4] = dose: 100.0 mg/kg/injection, schedule: Q01DX009 (ip), vehicle: saline with Tween-80
[5] = dose: 200.0 mg/kg/injection, schedule: Q01DX009 (ip), vehicle: saline with Tween-80
[6] = dose: 100.0 mg/kg/injection, schedule: Q01DX009 (ip), vehicle: Klucel (hydroxypropylcellulose) (HPC)
[7] = dose: 200.0 mg/kg/injection, schedule: Q01DX009 (ip), vehicle: Klucel (hydroxypropylcellulose) (HPC)
[8] = dose: 400.0 mg/kg/injection, schedule: Q01DX009 (ip), vehicle: Klucel (hydroxypropylcellulose) (HPC)
[9] = dose: 400.0 mg/kg/injection, schedule: Q01DX009 (ip), vehicle: saline with Tween-80

Structure (SMILES): COc1cc2cc(c1Cl)N(C)C(=O)C[C@H](OC(=O)[C@H](C)N(C)C(C)=O)[C@]1(C)O[C@H]1[C@H](C)[C@@H]1C[C@@](O)(NC(=O)O1)[C@H](OC)C=C/C=C(\C)C2
- T/C (dose: 1.0 micrograms/kg/injection, schedule: Q01DX009 (ip), vehicle: saline + alcohol): 121 % of control
- T/C (dose: 2.0 micrograms/kg/injection, schedule: Q01DX005 (iv), vehicle: saline + alcohol): 107 % of control
- T/C (dose: 4.0 micrograms/kg/injection, schedule: Q01DX005 (iv), vehicle: saline + alcohol): 106 % of control
- T/C (dose: 8.0 micrograms/kg/injection, schedule: Q01DX005 (iv), vehicle: saline + alcohol): 100 % of control and 106 % of control
- T/C (dose: 64.0 micrograms/kg/injection, schedule: Q01DX005 (iv), vehicle: saline + alcohol): 112 % of control and 113 % of control
- T/C (dose: 128.0 micrograms/kg/injection, schedule: Q01DX005 (iv), vehicle: saline + alcohol): 120 % of control
- T/C (dose: 256.0 micrograms/kg/injection, schedule: Q01DX005 (iv), vehicle: saline + alcohol): 152 % of control

Structure (SMILES): COC(C(=O)C(O)C(C)O)C1CC2C=C3C=C(OC4CC(OC5CC(O)C(OC)C(C)O5)C(OC(C)=O)C(C)O4)C(C)C(=O)C3=C(O)C2=C(O)C1OC1CC(OC2CC(OC3CC(C)(O)C(O)C(C)O3)C(O)C(C)O2)C(O)C(C)O1 (centres undefined)
- T/C (dose: 0.25 mg/kg/injection, schedule: Q01DX009 (ip), vehicle: saline with Tween-80): 109 % of control
- T/C (dose: 0.5 mg/kg/injection, schedule: Q01DX009 (ip), vehicle: saline with Tween-80): 120 % of control
- T/C (dose: 1.0 mg/kg/injection, schedule: Q01DX009 (ip), vehicle: saline with Tween-80): 120 % of control
- T/C (dose: 4.0 mg/kg/injection, schedule: Q01DX009 (ip), vehicle: saline with Tween-80): 178 % of control
- T/C (dose: 8.0 mg/kg/injection, schedule: Q01DX009 (ip), vehicle: saline with Tween-80): 178 % of control

Structure (SMILES): CCOC(=O)[C@]1(Br)CC[C@@]1(Br)C(=O)OCC
- T/C [1]: 108 % of control and 104 % of control
- T/C [2]: 110 % of control and 105 % of control
- T/C [3]: 98 % of control and 106 % of control
- T/C [4]: 100 % of control and 107 % of control
- T/C [5]: 110 % of control and 105 % of control

Structure (SMILES): OCCO
- T/C (dose: 0.25 % in 0.5 ml injection vol, schedule: Q01DX009 (ip), vehicle: water): 97 % of control
- T/C (dose: 0.5 % in 0.5 ml injection vol, schedule: Q01DX009 (ip), vehicle: water): 96 % of control

Structure (SMILES): COc1cc2oc3c(C)c(=O)cc4oc(-c5ccccc5)cc(c2c2c1CCC(c1ccccc1)O2)c43 (centres undefined)
- T/C (dose: 0.85 mg/kg/injection, schedule: Q01DX009 (ip), vehicle: Klucel (hydroxypropylcellulose) (HPC)): 105 % of control
- T/C (dose: 1.75 mg/kg/injection, schedule: Q01DX009 (ip), vehicle: Klucel (hydroxypropylcellulose) (HPC)): 101 % of control
- T/C (dose: 3.5 mg/kg/injection, schedule: Q01DX009 (ip), vehicle: Klucel (hydroxypropylcellulose) (HPC)): 103 % of control
- T/C (dose: 7.0 mg/kg/injection, schedule: Q01DX009 (ip), vehicle: Klucel (hydroxypropylcellulose) (HPC)): 95 % of control and 106 % of control
- T/C (dose: 14.0 mg/kg/injection, schedule: Q01DX009 (ip), vehicle: Klucel (hydroxypropylcellulose) (HPC)): 97 % of control and 104 % of control
- T/C (dose: 28.0 mg/kg/injection, schedule: Q01DX009 (ip), vehicle: Klucel (hydroxypropylcellulose) (HPC)): 121 % of control

Structure (SMILES): COC1=C(OC)C(=O)C(C/C=C(\C)CC/C=C(\C)CC/C=C(\C)CC/C=C(\C)CC/C=C(\C)CC/C=C(\C)CC/C=C(\C)CC/C=C(\C)CC/C=C(\C)CCC=C(C)C)=C(C)C1=O
- T/C (dose: 6.25 mg/kg/injection, schedule: Q01DX009 (ip), vehicle: saline with Tween-80): 91 % of control
- T/C [1]: 97 % of control and 101 % of control
- T/C [2]: 93 % of control and 96 % of control
- T/C [3]: 97 % of control
- T/C [4]: 94 % of control and 98 % of control
- T/C [5]: 87 % of control and 90 % of control

Structure (SMILES): CCCC(NC(=O)C(C)N)C(=O)O (centres undefined)
- T/C (dose: 50.0 mg/kg/injection, schedule: Q01DX009 (ip), vehicle: Klucel (hydroxypropylcellulose) (HPC)): 106 % of control
- T/C [6]: 112 % of control
- T/C [7]: 92 % of control
- T/C [8]: 98 % of control

Structure (SMILES): O=CNCC(=O)O
- T/C (dose: 50.0 mg/kg/injection, schedule: Q01DX009 (ip), vehicle: saline): 91 % of control
- T/C (dose: 100.0 mg/kg/injection, schedule: Q01DX009 (ip), vehicle: saline): 89 % of control

Structure (SMILES): [F][Sn]([F])([c]1ccccc1)[c]1ccccc1
- T/C (dose: 1.56 mg/kg/injection, schedule: Q01DX009 (ip), vehicle: Klucel (hydroxypropylcellulose) (HPC)): 98 % of control
- T/C (dose: 3.12 mg/kg/injection, schedule: Q01DX009 (ip), vehicle: Klucel (hydroxypropylcellulose) (HPC)): 87 % of control
- T/C (dose: 6.25 mg/kg/injection, schedule: Q01DX009 (ip), vehicle: Klucel (hydroxypropylcellulose) (HPC)): 104 % of control
- T/C (dose: 12.5 mg/kg/injection, schedule: Q01DX009 (ip), vehicle: Klucel (hydroxypropylcellulose) (HPC)): 103 % of control

Structure (SMILES): COC1(OC)C2C=CC1CC2
- T/C [1]: 108 % of control and 98 % of control
- T/C [2]: 101 % of control
- T/C [3]: 113 % of control and 102 % of control
- T/C [4]: 114 % of control and 100 % of control
- T/C [5]: 100 % of control and 102 % of control
- T/C [9]: 98 % of control

Structure (SMILES): CC(NC(=O)OCC1c2ccccc2-c2ccccc21)C(=O)O (centres undefined)
- T/C [6]: 104 % of control
- T/C [7]: 101 % of control
- T/C [8]: 87 % of control

Structure (SMILES): O=c1cc(-c2ccccc2)[nH]c2c1CCCC2
- T/C [4]: 109 % of control
- T/C [5]: 117 % of control

Structure (SMILES): Nc1nc(-c2ccc([N+](=O)[O-])cc2)c(Br)c(=O)[nH]1
- T/C [2]: 98 % of control
- T/C [3]: 107 % of control
- T/C [4]: 107 % of control
- T/C [5]: 95 % of control

Structure (SMILES): CCN(CC)CCCC(C)Nc1c2ccc(C)cc2nc2ccc(OC)cc12 (centres undefined)
- T/C (dose: 12.5 mg/kg/injection, schedule: Q01DX009 (ip), vehicle: saline): 102 % of control
- T/C (dose: 25.0 mg/kg/injection, schedule: Q01DX009 (ip), vehicle: saline): 111 % of control

Structure (SMILES): N=C(N)c1ccc(/C=C/c2ccc(C(=N)N)cc2)cc1
- T/C (dose: 16.0 mg/kg/injection, schedule: Q01DX009 (ip), vehicle: Klucel (hydroxypropylcellulose) (HPC)): 101 % of control
- T/C (dose: 32.0 mg/kg/injection, schedule: Q01DX009 (ip), vehicle: Klucel (hydroxypropylcellulose) (HPC)): 116 % of control
- T/C (dose: 32.0 mg/kg/injection, schedule: Q01DX009 (ip), vehicle: saline with Tween-80): 101 % of control
- T/C (dose: 64.0 mg/kg/injection, schedule: Q01DX009 (ip), vehicle: Klucel (hydroxypropylcellulose) (HPC)): 97 % of control
- T/C (dose: 64.0 mg/kg/injection, schedule: Q01DX009 (ip), vehicle: saline with Tween-80): 101 % of control

Structure (SMILES): CC(Cc1ccc(O)cc1)NCC(O)c1ccc(O)c(O)c1 (centres undefined)
- T/C [1]: 97 % of control
- T/C [2]: 92 % of control
- T/C [3]: 100 % of control
- T/C [4]: 101 % of control
- T/C [5]: 101 % of control
- T/C [9]: 111 % of control

Structure (SMILES): CNc1cccnc1/C=N/NC(N)=S
- T/C [1]: 119 % of control
- T/C [3]: 159 % of control
- T/C [4]: 151 % of control

Structure (SMILES): CCC(C)C(=O)OC1C(=O)OC2CC3C(C)=CC(=O)C(O)C3(C)C3C4(O)OCC23C1C(C)C4O (centres undefined)
- T/C (dose: 2.5 mg/kg/injection, schedule: Q01DX009 (ip), vehicle: saline): 160 % of control
- T/C (dose: 5.0 mg/kg/injection, schedule: Q01DX009 (ip), vehicle: saline): 176 % of control

Structure (SMILES): S=C(NCNC(=S)c1ccncc1)c1ccncc1
- T/C [3]: 102 % of control
- T/C [4]: 91 % of control
- T/C [5]: 100 % of control
- T/C [9]: 104 % of control

Structure (SMILES): Nc1ccc(Cl)c2ccccc12
- T/C [2]: 99 % of control
- T/C [3]: 103 % of control
- T/C [4]: 109 % of control

Structure (SMILES): OCC1OC(n2cnc3c(SCc4ccccc4)ncnc32)C(O)C1O (centres undefined)
- T/C (dose: 37.5 mg/kg/injection, schedule: Q01DX009 (ip), vehicle: saline with Tween-80): 171 % of control
- T/C (dose: 75.0 mg/kg/injection, schedule: Q01DX009 (ip), vehicle: saline with Tween-80): 167 % of control
- T/C (dose: 150.0 mg/kg/injection, schedule: Q01DX009 (ip), vehicle: saline with Tween-80): 182 % of control

Structure (SMILES): C=CC(C)(C)n1cc(C2=C(O)C(=O)C(c3cn(C(C)(C)C=C)c4ccccc34)=C(O)C2=O)c2ccccc21
- T/C (dose: 2.5 micrograms/kg/injection, schedule: Q01DX009 (ip), vehicle: DMSO): 87 % of control
- T/C (dose: 5.0 micrograms/kg/injection, schedule: Q01DX009 (ip), vehicle: DMSO): 91 % of control
- T/C (dose: 10.0 micrograms/kg/injection, schedule: Q01DX009 (ip), vehicle: DMSO): 86 % of control
- T/C (dose: 20.0 micrograms/kg/injection, schedule: Q01DX009 (ip), vehicle: DMSO): 87 % of control

Structure (SMILES): NCCCN=c1ccc2c3c1c(O)c1c(O)ccc(=O)c1c3[nH]n2CCNCCO
- T/C (dose: 2.0 mg/kg/injection, schedule: Q01DX009 (ip), vehicle: water): 188 % of control
- T/C (dose: 4.0 mg/kg/injection, schedule: Q01DX009 (ip), vehicle: water): 263 % of control
- T/C (dose: 8.0 mg/kg/injection, schedule: Q01DX009 (ip), vehicle: water): 165 % of control

Structure (SMILES): CC(C)(C)OC(=O)NC(CCCCNC(=O)C(F)(F)F)C(=O)ON1C(=O)CCC1=O (centres undefined)
- T/C [1]: 91 % of control
- T/C [2]: 94 % of control
- T/C [3]: 96 % of control and 102 % of control

Structure (SMILES): Cc1ccc(Cl)c2ccccc12
- T/C [1]: 101 % of control and 104 % of control
- T/C [2]: 100 % of control and 101 % of control and 104 % of control
- T/C [3]: 101 % of control and 105 % of control and 107 % of control
- T/C [4]: 94 % of control and 98 % of control
- T/C [5]: 94 % of control

From PubChem BioAssay AID200 (DTP/NCI, 2004)
